Values of other authors, collected in patent US20110064813A1, “USE OF SALSALATE WITH OR WITHOUT CAFFEINE AND WITH OR WITHOUT OMEGA 3, AND OTHER PHARMACEUTICAL COMPOUNDS IN A DISTINCTIVELY UNIQUE NANO-PARTICULATE CAPSULE AND TABLET” (priority 2009, published 2011).

Columns and labels:
pro-thrombin time = conditions: unlike Aspirin
[1] = compared with aspirin and other NSAIDS
[2] = acidic conditions
[3] = tested on: patients presenting with Type 2 Diabetes (T2D); conditions: tablet forms of salsalate; T2D patients and obese patients
[4] = administered orally
[5] = tested on: patients with rheumatoid arthritis; conditions: compared with diclofenac

## O=C(Oc1ccccc1C(=O)O)c1ccccc1O [salsalate, 2-(2-Hydroxybenzoyl)oxybenzoic acid]
pro-thrombin time
  inhibition of pro-thrombin time: does not inhibit
HIV-infected patients; HIV patients
  salsalate induced liver dysfunction: a significant number of HIV patients experienced salsalate induced liver dysfunction
HIV-infected patients; HIV-infected patients
  endothelial function: improved endothelial function
[1]
  fecal gastrointestinal blood loss: less fecal gastrointestinal blood loss than aspirin
[2]
  solubility: nearly insoluble
[3]
  lowering of glucose levels: experienced efficacy in the lowering of glucose levels
[4]
  time to full benefit (plasma salicylate steady state): 3 to 4 days
[5]
  clinical efficacy: equal to diclofenac
